# Measured values as given in patent US20050084505A1, “Utilization of ubiquinones for influencing the effect of histamine” (priority 2002, published 2005).
# Legend:
# [1] = test system: prepared lung tissue and trachea pieces of guinea pigs; details: tissue not aerated, cited from earlier work
# [2] = test system: Isolated, perfused and ventilated lungs from adult rats; assay: Isolated, perfused and ventilated rat lung, histamine-induced constriction
# Method: Isolated, perfused and ventilated lungs from adult rats (280 to 330 g body weight) were injected with 50 pg of histamine per lung. After 2 to […], this caused constriction of the bronchial and pulmonary vessels with reduction of the lung extensibility.
# [3] = upon the action of γ-globulin on lung tissue
structure (smiles),measurement,setting,value
"COC1=C(OC)C(=O)C(C/C=C(\C)CC/C=C(\C)CC/C=C(\C)CC/C=C(\C)CC/C=C(\C)CC/C=C(\C)CC/C=C(\C)CC/C=C(\C)CC/C=C(\C)CCC=C(C)C)=C(C)C1=O [CoQ-10, 2,3-dimethoxy-5-methyl-6-decaprenyl-1,4-benzoquinone]",contraction of lung tissue by added histamine,[1]; continuously administered,increased
same,secretion of SRS-A,[1]; [3],reduced
same,secretion of histamines,[1]; [3],reduced
same,spontaneous vasoconstriction of the lung vessels,"[2]; 2.7 ppm in the perfusate, compared with control perfusion (even below)",decreased
same,delayed histamine reaction (constriction of the bronchial and pulmonary vessels with reduction of the lung extensibility),"[2]; previous addition of 2.7 ppm in the perfusate, 50 pg of histamine per lung, reaction after 2 to 3 hours",completely prevented
